Data published in patent US11098059B2, “PRMT5 inhibitors” (Merck Sharp & Dohme Corp., priority 2017, dated 2021).
Like-named read-outs stand apart in the source and are kept apart here.

Experiments:
[1] = biological target: Full-length (FL)-PRMT5-MEP50 enzyme complex (Homo sapiens (Human), UniProt O14744); test: PRMT5-MEP50 Enzyme Methylation Assay; format: biochemical; for Enzyme Methylation Assay IC50 1: top concentration 100000 nM
Experimental: PRMT5-MEP50 Enzyme Methylation Assay
PRMT5/MEP50 biochemical assay is a direct measurement of the methylation activity of the enzyme complex on a short peptide substrate derived from the N-terminus of H4 histone. The methylation experiment is performed with recombinant protein. The assessment of inhibitory effect (IC50) of small molecules is measured by the effectiveness of the compounds to inhibit this reaction.
To each well of a white ProxiPlus 384 well-plate, 100 nL of compound (1% DMSO in final assay volume of 10 μL) was dispensed, followed by the addition of 8 μL of 1× assay buffer (50 mM Bicine pH 8.0, 1 mM DTT, 0.004% Tween20, 0.01% BSA) containing 0.5 nM of Full-length (FL)-PRMT5-MEP50 enzyme complex (recombinant proteins from baculovirus-transfected Sf21 cells: FL-PRMT5; MW=[…] and FL-MEP50; MW=38614). Plates were sealed and placed in a 37° C. humidified chamber for 30 minutes pre-incubation with compounds. Subsequently, each reaction was initiated by the addition of 2 μL 1× assay buffer containing 75 nM biotinylated H4R3(Me1) peptide, and 15 μM S-(5′-Adenosyl)-L-Methionine Chloride (SAM). The final reaction in each well of 10 μL consists of 0.5 nM PRMT5-MEP50, 75 nM biotinylated-peptide, and 15 μM SAM. Methylation reactions were allowed to proceed for 150 minutes in a sealed plate at 37° C. Reactions were immediately quenched by the addition of 1 μL of 10% formic acid. Plates were then frozen and shipped to SAMDI™ Tech Inc. to determine the percent conversion from […]. IC50 values were determined by 7 parameters biphasic fit model plotting the percent product conversion vs. (Log10) compound concentrations.

[2] = biological target: PRMT5 (Homo sapiens (Human), UniProt O14744); test: PRMT5 Cell Target Engagement (TE) Assay; format: cell-based; conditions: treated 3 days, nuclear SDMA by high content imaging, top concentration 10000 nM
Description: PRMT5 Cell Target Engagement (TE) Assay
The PRMT5 TE assay is a biomarker assay for identifying compounds that inhibit symmetric dimethylation of arginine (SDMA) of PRMT5 substrates. This assay detects symmetrically dimethylated nuclear proteins using high content imaging technology. Detection of the expression of symmetrically dimethylated nucleo proteins is through a mixture of primary rabbit monoclonal antibodies to SDMA (CST 13222), which in turn recognized by an Alexafluor 488 dye-conjugated anti-rabbit IgG secondary antibody. The IN Cell Analyzer 2200 measures nuclear Alexafluor 488 fluorescent dye intensity that is directly related to the level of expression of symmetrically dimethylated nuclear proteins at the single cell level. Nuclear AF488 dye intensities are compared to the mean value for DMSO treated cells […] to report percent of inhibition for each compound-treated well.
Each well of a BD falcon collagen coated black/clear bottom 384-well plate was seeded with 4000 MCF-7 cells and allowed to attach for 5 hours. Media from cell plate was removed at 0.5 mm above the bottom of the plate and replaced with 30 μL of fresh media containing 1.2× compounds in 0.1% DMSO. Cells were treated for 3 days in 37° C. CO2 incubator. On day 3, cells were fixed with Cytofix, permeablized with 0.4% Triton-X-100/Cytofix, and washed with D-PBS without Ca/Mg. Cells were blocked with Licor Odessey blocking reagent for one hour at room temperature, followed by incubation with anti-SDMA (1:1000) antibody at 4° C. overnight. 1 antibody was removed, followed by three washings with DPBS without Ca/Mg and 0.05% Tween20. Hoechst (5 μg/ml), Cell Mask deep stain (1:2000) and Alexa488-conjugated goat anti-rabbit IgG (2 μg/mL) was added for 1 hour at room temperature. A final washing step (three washes) was performed before sealing plate for imaging on In Cell Analyzer 2200. Images from analyzer were uploaded to Columbus (at WP) for image analysis. IC50 values were determined by 4 parameters robust fit of percent fluorescence units vs. (Log10) compound concentrations.

[3] = read-out: Enzyme Methylation Assay IC50_1
[4] = read-out: Enzyme Methylation Assay IC50_2
[5] = MCF-7 cells, read-out: TE Assay EC50

Sequence of Full-length (FL)-PRMT5-MEP50 enzyme complex (O14744 whole entry): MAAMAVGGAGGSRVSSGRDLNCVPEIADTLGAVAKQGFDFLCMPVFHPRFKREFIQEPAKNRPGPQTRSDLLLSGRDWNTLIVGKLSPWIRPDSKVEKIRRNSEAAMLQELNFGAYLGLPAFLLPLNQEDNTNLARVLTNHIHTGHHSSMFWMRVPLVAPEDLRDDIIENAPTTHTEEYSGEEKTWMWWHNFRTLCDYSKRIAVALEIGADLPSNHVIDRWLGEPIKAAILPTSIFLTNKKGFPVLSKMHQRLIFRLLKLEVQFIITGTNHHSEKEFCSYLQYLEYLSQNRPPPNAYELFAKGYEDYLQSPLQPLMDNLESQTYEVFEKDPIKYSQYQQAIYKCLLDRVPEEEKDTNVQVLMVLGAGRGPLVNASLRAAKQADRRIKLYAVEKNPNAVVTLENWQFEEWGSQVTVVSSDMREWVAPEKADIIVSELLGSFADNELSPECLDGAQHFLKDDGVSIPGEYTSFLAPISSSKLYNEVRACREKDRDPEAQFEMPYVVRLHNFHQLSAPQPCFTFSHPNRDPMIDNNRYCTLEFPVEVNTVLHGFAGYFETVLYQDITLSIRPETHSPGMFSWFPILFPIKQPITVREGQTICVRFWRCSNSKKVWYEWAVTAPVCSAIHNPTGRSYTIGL
Sequence of Full-length (FL)-PRMT5-MEP50 enzyme complex (Q9BQA1 whole entry partner): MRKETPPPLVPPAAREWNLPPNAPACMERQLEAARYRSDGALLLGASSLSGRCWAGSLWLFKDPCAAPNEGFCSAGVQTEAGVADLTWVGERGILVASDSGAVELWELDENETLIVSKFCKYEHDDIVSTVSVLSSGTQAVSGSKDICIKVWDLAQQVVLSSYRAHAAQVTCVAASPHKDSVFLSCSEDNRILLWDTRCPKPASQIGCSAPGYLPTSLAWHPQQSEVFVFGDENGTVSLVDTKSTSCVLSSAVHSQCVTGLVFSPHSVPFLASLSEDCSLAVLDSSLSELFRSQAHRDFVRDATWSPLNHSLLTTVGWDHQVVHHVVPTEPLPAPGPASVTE
Sequence of PRMT5 (O14744 whole entry): as the sequence (O14744 whole entry) above
Sequence of PRMT5 (Q9BQA1 whole entry partner): as the sequence (Q9BQA1 whole entry partner) above

IC50 [1, 3]	IC50 [1, 4]	EC50 [2, 5]	SMILES	EC50 ([2]; TE Assay EC50, MCF-7 cells)
0.47 nM	422 nM	29.5 nM	CC1(C)CN(C[C@@H](O)[C@@H]2Cc3ccccc3CN2)C(=O)c2ccc(-c3ncnn3C3CC3)cc21 [Example 9, 6-(1-cyclopropyl-1H-1,2,4-triazol-5-yl)-2-{(2R)-2-hydroxy-2-[(3S)-1,2,3,4-tetrahydroisoquinolin-3-yl]ethyl}-4,4-dimethyl-3,4-dihydroisoquinolin-1(2H)-one]	
225 nM	≥ 100000 nM	≥ 10000 nM	CC1(C)CN(C[C@H](O)[C@@H]2Cc3ccccc3CN2)C(=O)c2ccc(Br)cc21 [Example 18, 6-bromo-2-((S)-2-hydroxy-2-((S)-1,2,3,4-tetrahydroisoquinolin-3-yl)ethyl)-4,4-dimethyl-3,4-dihydroisoquinolin-1(2H)-one]	
34.3 nM	34300 nM	≥ 10000 nM	CC1(C)CN(C[C@H](O)[C@@H]2Cc3ccccc3CN2)C(=O)c2ccc(C(=O)N3C4COC5C4OCC53)cc21 [Example 28, 6-(hexahydro-3,6-epiminofuro[3,2-b]furan-7-carbonyl)-2-((S)-2-hydroxy-2-((S)-1,2,3,4-tetrahydroisoquinolin-3-yl)ethyl)-4,4-dimethyl-3,4-dihydroisoquinolin-1(2H)-one]	
0.29 nM	127 nM	17 nM	O=C1c2ccc(-c3ncnn3C3CC3)cc2C2(CCC2)CN1C[C@@H](O)[C@@H]1Cc2ccccc2CN1 [Example 11, 6′-(1-cyclopropyl-1H-1,2,4-triazol-5-yl)-2′-{(2R)-2-hydroxy-2-[(3S)-1,2,3,4-tetrahydroisoquinolin-3-yl]ethyl}-2′,3′-dihydro-1′H-spiro[cyclobutane-1,4′-isoquinolin]-1′-one]	
49 nM	28500 nM	7680 nM	CC[C@H]1CN(C[C@@H](O)[C@@H]2Cc3ccccc3CN2)C(=O)c2ccc(-c3ncnn3C)cc21 (single isomer, unassigned) [Example 8]	
0.31 nM	313 nM	143 nM	CC[C@H]1CN(C[C@@H](O)[C@@H]2Cc3ccccc3CN2)C(=O)c2ccc(-c3ncnn3C)cc21 (single isomer, unassigned) [Example 7]	

The next lines start with the compound.

SMILES	IC50 [1, 3]	IC50 [1, 4]	EC50 [2, 5]	EC50 ([2]; TE Assay EC50, MCF-7 cells)
CC[C@H]1CN(C[C@@H](O)[C@@H]2Cc3ccccc3CN2)C(=O)c2ccc(C(=O)N3C4CCC3COC4)cc21 (single isomer, unassigned) [Example 16]	17.6 nM	8840 nM	829 nM	
CC[C@H]1CN(C[C@@H](O)[C@@H]2Cc3ccccc3CN2)C(=O)c2ccc(Br)cc21 (single isomer, unassigned) [Example 4]	45.8 nM	25800 nM	≥ 10000 nM	
CO[C@H]1C[C@H]2CC[C@@H](C1)N2C(=O)c1ccc2c(c1)C(C)(C)CN(C[C@@H](O)[C@@H]1Cc3ccccc3CN1)C2=O [Example 23, 2-((R)-2-hydroxy-2-((S)-1,2,3,4-tetrahydroisoquinolin-3-yl)ethyl)-6-((1R,3R,5S)-3-methoxy-8-azabicyclo[3.2.1]octane-8-carbonyl)-4,4-dimethyl-3,4-dihydroisoquinolin-1(2H)-one]	0.5 nM	97.7 nM		2.14 nM
CC[C@H]1CN(C[C@@H](O)[C@@H]2Cc3ccccc3CN2)C(=O)c2ccc(-c3ncnn3C)cc21 (single isomer, unassigned) [Example 6]	3.82 nM	5080 nM	1440 nM	
CC1(C)CN(C[C@H](O)[C@@H]2Cc3ccccc3CN2)C(=O)c2ccc(C(=O)N3[C@@H]4CC[C@H]3C[C@@H](O)C4)cc21 [Example 22, 2-((S)-2-hydroxy-2-((S)-1,2,3,4-tetrahydroisoquinolin-3-yl)ethyl)-6-((1R,3S,5S)-3-hydroxy-8-azabicyclo[3.2.1]octane-8-carbonyl)-4,4-dimethyl-3,4-dihydroisoquinolin-1(2H)-one]	50.1 nM	15300 nM	5280 nM	
CC[C@H]1CN(C[C@@H](O)[C@@H]2Cc3ccccc3CN2)C(=O)c2ccc(Br)cc21 (single isomer, unassigned) [Example 3]	411 nM	21300 nM	≥ 10000 nM	
CC1(C)CN(C[C@@H](O)[C@@H]2Cc3ccccc3CN2)C(=O)c2ccc(C(=O)N3[C@@H]4CC[C@H]3C[C@@H](O)C4)cc21 [Example 21, 2-((R)-2-hydroxy-2-((S)-1,2,3,4-tetrahydroisoquinolin-3-yl)ethyl)-6-((1R,3R,5S)-3-hydroxy-8-azabicyclo[3.2.1]octane-8-carbonyl)-4,4-dimethyl-3,4-dihydroisoquinolin-1(2H)-one]	0.52 nM	88.1 nM		5.52 nM
CC[C@H]1CN(C[C@@H](O)[C@@H]2Cc3ccccc3CN2)C(=O)c2ccc(-c3ncnn3C)cc21 (single isomer, unassigned) [Example 5]	465 nM	≥ 100000 nM	≥ 10000 nM	
CC1(C)CN(C[C@@H](O)[C@@H]2Cc3ccccc3CN2)C(=O)c2ccc(C(=O)N3C4CCC3COC4)cc21 [Example 19, 6-(3-oxa-8-azabicyclo[3.2.1]octane-8-carbonyl)-2-((R)-2-hydroxy-2-((S)-1,2,3,4-tetrahydroisoquinolin-3-yl)ethyl)-4,4-dimethyl-3,4-dihydroisoquinolin-1(2H)-one]	0.53 nM	138 nM		9.5 nM
CC[C@H]1CN(C[C@@H](O)[C@@H]2Cc3ccccc3CN2)C(=O)c2ccc(C(=O)N3C4CCC3COC4)cc21 (single isomer, unassigned) [Example 13]	0.36 nM	270 nM		30 nM
CO[C@@H]1C[C@H]2CC[C@@H](C1)N2C(=O)c1ccc2c(c1)C(C)(C)CN(C[C@H](O)[C@@H]1Cc3ccccc3CN1)C2=O [Example 26, 2-((S)-2-hydroxy-2-((S)-1,2,3,4-tetrahydroisoquinolin-3-yl)ethyl)-6-((1R,3R,5S)-3-methoxy-8-azabicyclo[3.2.1]octane-8-carbonyl)-4,4-dimethyl-3,4-dihydroisoquinolin-1(2H)-one]	24.3 nM	14600 nM	4630 nM	
CC[C@H]1CN(C[C@@H](O)[C@@H]2Cc3ccccc3CN2)C(=O)c2ccc(Br)cc21 (single isomer, unassigned) [Example 1]	5.38 nM	3740 nM	2860 nM	
CO[C@@H]1C[C@H]2CC[C@@H](C1)N2C(=O)c1ccc2c(c1)C(C)(C)CN(C[C@@H](O)[C@@H]1Cc3ccccc3CN1)C2=O [Example 25, 2-((R)-2-hydroxy-2-((S)-1,2,3,4-tetrahydroisoquinolin-3-yl)ethyl)-6-((1R,3S,5S)-3-methoxy-8-azabicyclo[3.2.1]octane-8-carbonyl)-4,4-dimethyl-3,4-dihydroisoquinolin-1(2H)-one]	0.44 nM	50.1 nM		3.81 nM
